Assay results from patent US20240002435A1, “SYNTHETIC PEPTIDE AND APPLICATION THEREOF” (Wuhan Innerse Pharmaceutical Inc., priority 2021, published 2024).
Where “and” joins values, the source holds several entries; their conditions need not be identical. Equal entries are not always repeated. Where no end group is shown, it is not given here. [ ]: non-standard residue; d: D form. βAla = NCCC(=O)O

Assays:
[1] = test system: rat model of cerebral ischemia (middle cerebral artery occlusion, MCAO); experiment: MCAO rat cerebral ischemia model, blinded behavioral scoring 0-5 points (Example 9); assay type: in vivo, SD rats; conditions: 3 mg/kg tail vein; for Behavioral score, mean value / Behavioral score: 22-24 h after suturation, scale 0-5 points; for Behavioral score, mean value: mean of 6 rats
Procedure: (§1) In order to determine the application of the synthetic peptides provided by the present invention in neurological diseases, the present invention uses SD rats as experimental objects, and performs middle cerebral artery occlusion method (MCAO) to prepare rat model of cerebral ischemia. These rats were injected drugs intravenously 1-2 hours after ischemia, and a behavioral observation and scoring was conducted for each animal after 22-24 hours. After the behavioral observation, the experimental rats were euthanized and their brains were removed, cut to sections and stained with TTC for quantitative analysis, and the cerebral infarct volume % was calculated.
(§2) The experimental SD rat was weighed and anesthetized with chloral hydrate. After anesthesia, the limbs of the rat were fixed, and the rat was placed in a supine position, connected to the small-animal monitor, and monitored for important physiological parameters such as body temperature, blood pressure and heart rate, etc. The rat's neck was shaved and disinfected with 75% alcohol cotton ball. A middle incision of about 2 cm length was then made on the neck of the experimental rat, and the submandibular gland of the rat was bluntly separated while avoiding damage to the gland. Then, the left common carotid artery (CCA) of the experimental rat was bluntly separated, and the internal carotid artery (ICA) and external carotid artery (ECA) were carefully separated upward along the CCA. Any damage to vagus nerves was avoided during the separation. The CCA and ICA were clamped respectively with two artery clamps, and the distal end of the ECA was cut off and a silicone suture emboli was inserted into the ECA “port” to the ICA artery clamp, then the artery clamp was quickly loosened and the tip of the suture emboli was put in through the artery clamp quickly before clamping the ICA again. This step was repeated and the suture emboli was put in further until the black mark of the suture emboli reached the bifurcation of the ECA and ICA, and the tip of the suture emboli blocked the middle cerebral artery and then the ECA “port” and the suture emboli was tied tightly using a thread in order to prevent the “escape” of suture emboli or bleeding after the rat waked up. The artery clamps on the CCA and ICA were then loosed and removed to restore the tissue to its original position, and an appropriate amount of penicillin was applied to prevent wound infection. A medical suture needle with thread was used to suture, and the wound was disinfected using povidone-iodine again after the suturation. The experimental rats were monitored with the small-animal monitor to evaluate if their physiological parameters were normal, and the rats were placed on a small-animal electric blanket to keep their body temperature until they waked up, and placed in animal cages.
(§3) The drug to be tested was prepared as 3 mg/mL solution. The drug was dosed via tail vein 1-2 h after the suturation.
(§4) During the drug administration, the rat was fastened with a fastening device, and the drug to be tested was injected into the tail vein of the rat at 3 mg/kg using 1 mL syringe, the drug was injected slowly to reduce the cardiopulmonary load of the experimental rat.
(§5) The animals were divided into different test groups, with 6 rats for each group.
(§6) Drug groups S1 (NA1), S8 (beta-Ala-His-Gly) and S9 (Gly-beta-Ala-His): administered via tail vein after the suturation;
The behavioral observation and scoring were performed on each animal 22-24 h after the suturation.

[2] = test system: rat model of cerebral ischemia (middle cerebral artery occlusion, MCAO); experiment: MCAO rat cerebral ischemia model, TTC staining, cerebral infarct volume (Example 9); assay type: in vivo, SD rats; conditions: for Cerebral infarction volume (TTC quantification), mean value / Cerebral infarction volume (TTC quantification): 3 mg/kg tail vein 1-2 h after suturation, read 22-24 h; for Cerebral infarction volume (TTC quantification), mean value: mean of 6 rats
Procedure: as §1, §2, §3, §4, §5, §6
After behavioral observations, experimental rats were euthanized and their brains were removed. The brain tissue was transversely cut into 6 slices with a 2 mm thickness, then transferred to TTC staining solution, incubated in a 37° C. incubator without light for 10 min, and taken pictures. The TTC-stained brain tissue and the remaining non-stained brain tissue were stored at −20° C.
Quantitative analysis of photos after TTC staining was performed using Image J software. […]

[3] = Dose-effect experiment, body weight of MCAO model animals (Example 10); conditions: mean ± SD
Procedure: The establishment of rat model: the rats were placed in an anesthesia induction box filled with 3.0% isoflurane for anesthesia induction. Anesthesia-induced animals were transferred to the operating table, and anesthesia was maintained with 2.0%˜2.5% isoflurane at 200 mL/min using a small-animal gas anesthesia machine, and the eyelid reflex and pain response of the rats were observed. The surgery can be started only after the eyelid reflex response and the pain response on limbs and tail disappeared. • A. Isolating and exposing blood vessels: the skin of the surgical area was shaved, and the rat was placed under a surgical microscope. The skin of the rat was cut along the midline with ophthalmic scissors, with a cut of about 2 cm length. […]
Animals measured: all the surviving experimental animals planned to be measured;
Measurement time: the body weight was measured at least twice during the accommodation, and each batch of rats were weighed once on the day before the surgery and on the day of dissection to calculate the amount of drug administered and the anesthetic applied; the body weight was measured twice a week after the surgery.

[4] = test system: suture-embolized MCAO model, rat cerebral ischemic stroke; experiment: Dose-effect experiment, suture-embolized MCAO ischemia-reperfusion, TTC infarct size and inhibition rate (Example 10); assay type: in vivo, Sprague-Dawley (SD) rats
Procedure: The establishment of rat model: the rats were placed in an anesthesia induction box filled with 3.0% isoflurane for anesthesia induction. Anesthesia-induced animals were transferred to the operating table, and anesthesia was maintained with 2.0%˜2.5% isoflurane at 200 mL/min using a small-animal gas anesthesia machine, and the eyelid reflex and pain response of the rats were observed. The surgery can be started only after the eyelid reflex response and the pain response on limbs and tail disappeared. • A. Isolating and exposing blood vessels: the skin of the surgical area was shaved, and the rat was placed under a surgical microscope. The skin of the rat was cut along the midline with ophthalmic scissors, with a cut of about 2 cm length. Through the right neck of the rat, the muscle tissue of the right neck was bluntly isolated and opened with a microforcep to expose the right common carotid artery (CCA), and then isolated upward along the common carotid artery to further expose the external carotid artery (ECA) and internal carotid artery (ICA); • B. The ECA was ligated and the ICA was temporarily clamped; the proximal end and distal end of CCA were threaded separately, the distal end was tied tightly and the proximal end was tied with a loose knot, and a small incision was made between the two threads; • C. Inserting the suture emboli: A No. 4-0 suture emboli was inserted through the incision of CCA, pushed slowly and gently into the internal carotid artery, and stopped at the artery clamp of ICA, the pre-set thread was tied tightly (to avoid severe bleeding when pushing the suture emboli), then the artery clamp that blocked the blood flow of ICA was removed, and the suture emboli was immediately pushed into ICA until entering into the cranium. At the moment, one should be careful not to insert the suture emboli into the pterygopalatine artery, which is another branch of the internal carotid artery (the pterygopalatine artery is one of the extra-cranial branches of ICA; when the suture emboli entered the pterygopalatine artery to a depth of about 10 mm, it cannot be inserted further, at the moment one should slightly draw back the suture emboli, adjust the direction, and insert again); • D. Fixing the suture emboli and suturing the incision: if one felt slight resistance when the suture emboli was inserted about 18 mm depth from the bifurcation of the common carotid artery, it means that the tip of the suture emboli has entered into the cerebral anterior artery (ACA), and the side wall of the suture emboli has blocked the opening of the middle cerebral artery; at the moment, the insertion was terminated and the time was recorded. […]

[5] = test system: experimental cerebral ischemia-reperfusion in animals; conditions: cynomolgus monkeys, preclinical ischemic stroke model; cited from earlier work
[6] = test system: suture-embolized MCAO model, rat cerebral ischemic stroke; experiment: Dose-effect experiment, Bederson score (Example 10); assay type: in vivo, Sprague-Dawley (SD) rats; conditions: 3 mg/kg group; 1 hour after ischemia, i.e. before dosing (model check); mean ± SD
Procedure: Measurement time: 1 hour after ischemia on the day of modeling;
Animals measured: all the animals survived in surgery;
Measurement method: the Bederson scoring standard was used to score animals.

[7] = test system: suture-embolized MCAO model, rat cerebral ischemic stroke; experiment: Dose-effect experiment, rat neurological function score NSS (Example 10); assay type: in vivo, Sprague-Dawley (SD) rats; conditions: mean ± SD
Procedure: Measurement time: 24 hours before and after modeling;
Measurement method: a motor function test, sensory test, balance test, and reflex and abnormal behavior test were performed on animals, according to the rat neurological function score scale (NS S) for details.

[8] = test system: patients with acute ischemic stroke (AIS) undergoing endovascular thrombectomy; conditions: 2.6 mg/kg intravenous injection; cited from earlier work
[9] = 3 mg/kg group, D 0 = 1 day before surgery (baseline)
[10] = 3 mg/kg i.v., D 2 = 1 day after surgery

| Substance | Behavioral score, mean value [1] | Behavioral score ([1]; rat No. 1) | Behavioral score ([1]; rat No. 2) | Behavioral score ([1]; rat No. 3) | Behavioral score ([1]; rat No. 4) | Behavioral score ([1]; rat No. 5) | Behavioral score ([1]; rat No. 6) | Cerebral infarction volume (TTC quantification), mean value [2] | Cerebral infarction volume (TTC quantification) ([2]; rat No. 1) | Cerebral infarction volume (TTC quantification) ([2]; rat No. 2) | Cerebral infarction volume (TTC quantification) ([2]; rat No. 3) | Cerebral infarction volume (TTC quantification) ([2]; rat No. 4) | Cerebral infarction volume (TTC quantification) ([2]; rat No. 5) | Cerebral infarction volume (TTC quantification) ([2]; rat No. 6) | also measured |
| --- | --- | --- | --- | --- | --- | --- | --- | --- | --- | --- | --- | --- | --- | --- | --- |
| Gly-[βAla]-His [S9] | 2.0 | 3 | 3 | 2 | 2 | 1 | 1 | 0.197±0.059 and 0.197 | 0.239 | 0.206 | 0.208 | 0.263 | 0.171 | 0.095 | Behavioral score, statistical comparison with S1 (NA1) [1]: not statistically different from S1; Behavioral score, mean value ([1]; listed as Gly-beta-Ala-His): 2.0±0.9; Infarct volume, statistical comparison with S1 (NA1) ([2]; 3 mg/kg tail vein): not statistically different from S1 |
| YGRKKRRQRRRKLSSIESDV [S1, Nerinetide] | 2.0 | 2 | 2 | 2 | 2 | 1 | 3 | 0.157 | 0.187 | 0.218 | 0.153 | 0.145 | 0.107 | 0.134 | Behavioral score, mean value ([1]; listed as NA1): 2.0±0.6; Weight D 0 [3, 9]: 251.91 ± 8.69 g; Weight D 2 [3, 10]: 203.7 ± 10.94 g; Infarct weight ([4]; 3 mg/kg i.v. once within 10 min after reperfusion, 24 h after treatment, mean ± SD): 0.24 ± 0.02 g; Infarct size ([4]; 3 mg/kg i.v. once within 10 min after reperfusion, TTC 24 h after treatment, infarct weight / whole brain weight, mean ± SD): 16.74±3.14%; Inhibition rate of cerebral infarction ([4]; 3 mg/kg i.v., calculated from infarct size vs model control group): 33%; Effect on infarct size of experimental cerebral ischemia-reperfusion [5]: reduce the infarct size; Bederson [6]: 3 ± 0; NSS score D 0 [7, 9]: 0 ± 0; NSS score D 2 [7, 10]: 8.00±0.76; Effect on patient's prognosis [8]: improved patient's prognosis |
